Measured values taken from patent US5464861A, “2-thioindoles (selenoindoles) and related disulfides (selenides) which inhibit protein tyrosine kinases and which have antitumor properties” (Warner-Lambert, priority 1993, dated 1995).
Read-outs that look alike come from different tables or passages of the source.

Key:
[1] = target: T1, epidermal growth factor receptor tyrosine kinase (Homo sapiens, UniProt P00533); assay: EGF receptor tyrosine kinase assay (P^32 incorporation in GAT); assay type: biochemical; details: for inhibition at 100 µM: EGRF-R, read-out: % Inhibition at 100 μM (EGFR TK)
T1 construct: A native 170,000 epidermal growth factor receptor-kinase complex from shed plasma membrane vesicles; endogenous in cells
Procedure: At the time of assay, membranes were solubilized in 4% Triton X-100 and glycerol. The reaction is carried out in wells of a 96-well microtiter plate in a total volume of […]. Buffer containing 20 mMHepes (pH 7.4), 15 mMMgCl2, mM MnCl2, and 0.02% BSA followed by […] of membrane protein and 150 ng of epidermal growth factor. The plates are incubated for 10 minutes at room temperature to activate the receptor kinase. […] ATP plus or minus compound are added and incubated 10 minutes at room temperature.

[2] = system: Swiss 3T3 mouse fibroblasts; assay: Growth inhibition assay, Swiss 3T3 fibroblasts; assay type: cell-based
Procedure: Swiss 3T3 mouse fibroblasts were maintained in dMEM/F12 media containing 10% fetal calf serum. […] The cells were grown at 37° C. under 5% CO2 for 72 hours and then counted by Coulter counter. The data were expressed as the concentration of inhibitor necessary to decrease the growth rate by 50%.

[3] = target: T2, human PDGF β receptor intracellular tyrosine kinase domain (Homo sapiens, UniProt P09619); assay: PDGF receptor tyrosine kinase inhibition assay (P^32 incorporation in Glu-Tyr); assay type: biochemical; details: for inhibition at 100 µM: read-out: % Inhibition at 100 μM (PDGFR TK); for IC50: Table 2, PDGF-R, IC50 entries, read-out: IC50 (PDGFR TK)
T2 construct: human PDGF β receptor intracellular tyrosine kinase domain; made in house; host or cells: SF9 insect cells, recombinant baculovirus; cell lysates used
Procedure: Recombinant baculovirus containing human PDGF β receptor intracellular tyrosine kinase domain was used to infect SF9 cells to overexpress the protein, and cell lysates were used for the assay. The ability of the tyrosine kinase to phosphorylate glutamate tyrosine substrate in the presence of P^32 -ATP and inhibitor was measured by counting the incorporation of P^32 in Glu-Tyr in TCAprecipitable material.

[4] = Table 2, EGRF-R, IC50 entries, read-out: IC50 (EGFR TK)
[5] = Swiss 3T3, 72 hours, Table 2, read-out: IC50 growth inhibition

T2 sequence (P09619 554-1106 limits assumed): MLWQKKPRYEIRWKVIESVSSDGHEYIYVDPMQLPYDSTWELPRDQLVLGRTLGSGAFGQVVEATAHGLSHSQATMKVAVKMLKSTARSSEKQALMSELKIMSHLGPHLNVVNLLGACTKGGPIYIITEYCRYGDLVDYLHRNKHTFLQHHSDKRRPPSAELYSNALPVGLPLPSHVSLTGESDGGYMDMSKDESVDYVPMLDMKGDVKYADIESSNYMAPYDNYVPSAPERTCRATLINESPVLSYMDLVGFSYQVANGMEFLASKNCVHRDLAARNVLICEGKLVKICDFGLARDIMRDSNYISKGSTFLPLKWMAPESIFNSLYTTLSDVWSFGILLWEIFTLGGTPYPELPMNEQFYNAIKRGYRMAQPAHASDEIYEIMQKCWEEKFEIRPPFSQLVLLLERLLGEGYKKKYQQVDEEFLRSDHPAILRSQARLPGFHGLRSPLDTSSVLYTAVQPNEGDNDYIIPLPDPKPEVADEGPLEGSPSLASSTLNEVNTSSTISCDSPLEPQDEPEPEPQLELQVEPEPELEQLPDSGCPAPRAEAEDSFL
T1 sequence (P00533 25-1210): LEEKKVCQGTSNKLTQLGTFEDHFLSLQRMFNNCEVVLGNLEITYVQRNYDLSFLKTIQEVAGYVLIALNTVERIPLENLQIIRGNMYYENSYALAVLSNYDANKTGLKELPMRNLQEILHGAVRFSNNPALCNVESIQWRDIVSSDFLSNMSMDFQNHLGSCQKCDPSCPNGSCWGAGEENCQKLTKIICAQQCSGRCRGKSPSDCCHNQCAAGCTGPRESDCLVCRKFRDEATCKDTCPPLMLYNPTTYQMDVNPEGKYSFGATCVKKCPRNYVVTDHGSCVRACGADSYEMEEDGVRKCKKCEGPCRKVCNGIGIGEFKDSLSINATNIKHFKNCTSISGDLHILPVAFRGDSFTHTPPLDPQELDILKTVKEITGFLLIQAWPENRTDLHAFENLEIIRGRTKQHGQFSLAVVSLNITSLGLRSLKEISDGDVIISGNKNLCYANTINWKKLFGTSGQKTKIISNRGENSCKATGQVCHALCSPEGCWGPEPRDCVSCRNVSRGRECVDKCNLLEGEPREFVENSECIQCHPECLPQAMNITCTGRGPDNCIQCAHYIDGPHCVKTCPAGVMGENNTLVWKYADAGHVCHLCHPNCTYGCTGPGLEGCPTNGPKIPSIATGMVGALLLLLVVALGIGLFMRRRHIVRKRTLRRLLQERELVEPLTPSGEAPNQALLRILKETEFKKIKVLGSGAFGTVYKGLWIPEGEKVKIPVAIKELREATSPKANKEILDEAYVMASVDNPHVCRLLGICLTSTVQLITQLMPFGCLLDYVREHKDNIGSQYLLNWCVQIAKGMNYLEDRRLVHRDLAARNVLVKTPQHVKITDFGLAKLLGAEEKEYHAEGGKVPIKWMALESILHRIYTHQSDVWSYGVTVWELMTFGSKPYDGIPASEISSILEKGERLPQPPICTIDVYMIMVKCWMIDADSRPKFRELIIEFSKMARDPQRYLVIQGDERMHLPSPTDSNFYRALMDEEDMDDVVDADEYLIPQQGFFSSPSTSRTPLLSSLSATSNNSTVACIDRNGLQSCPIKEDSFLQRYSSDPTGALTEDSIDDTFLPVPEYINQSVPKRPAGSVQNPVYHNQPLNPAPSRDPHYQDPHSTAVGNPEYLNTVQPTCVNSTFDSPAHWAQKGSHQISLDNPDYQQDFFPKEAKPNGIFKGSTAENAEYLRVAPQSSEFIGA
T1 sequence (P01133 971-1023 partner limits assumed): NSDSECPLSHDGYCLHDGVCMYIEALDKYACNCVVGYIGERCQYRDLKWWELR

SMILES	IC50 [1, 4] [µM]	inhibition at 100 µM [1] [%]	inhibition at 100 µM ([3]; at 100 μM, PDGF-R) [%]	other results
O=C(O)CCC1C(=S)Nc2ccccc21 (stereo not shown) [Compound 7, 3-(2-thioxo-3-indolinyl)propanoic acid]	1.3	–	–	IC50 [2, 5]: 94 µM
COC(=O)CCC1C(=S)Nc2ccccc21 (stereo not shown) [Compound 9, methyl 3-(2-thioxo-3-indolinyl)propanoate]	–	52	–	IC50 [2, 5]: 16 µM
CCOC(=O)CCC1C(=S)Nc2ccccc21 (stereo not shown) [Compound 10, ethyl 3-(2-thioxo-3-indolinyl) propanoate]	–	10	–	IC50 [2, 5]: 34 µM
COC(=O)Cc1c(SSc2[nH]c3ccccc3c2CC(=O)OC)[nH]c2ccccc12 [Compound 27, bis[methylindolyl-3-acetate-(2)]disulfide]	17.8	–	–	IC50 [2, 5]: 2.3 µM
O=C(O)Cc1c(SSc2[nH]c3ccccc3c2CC(=O)O)[nH]c2ccccc12 [Compound 29, bis[indolyl-3-acetic acid-(2)] disulfide]	8.3	–	–	IC50 [2, 5]: 25 to 100 µM
O=C(O)Cc1c(SSSc2[nH]c3ccccc3c2CC(=O)O)[nH]c2ccccc12 [Compound 30, bis[indolyl-3-acetic acid-(2)]trisulfide]	9.3	–	–	IC50 [2, 5]: 8 µM
COC(=O)Cc1c(SSSc2[nH]c3ccccc3c2CC(=O)OC)[nH]c2ccccc12 [Compound 31, bis[methylindolyl-3-acetate-(2)]trisulfide]	35.5	–	–	IC50 [2, 5]: 1 µM
O=C(O)CCc1c(SSc2[nH]c3ccccc3c2CCC(=O)O)[nH]c2ccccc12 [Compound 36, bis[indolyl-3-propanoic acid-(2)]disulfide]	4.8	–	–	IC50 [2, 5]: 59 µM
Cc1ccc2c(C(=O)Nc3ccccc3)c(SSc3c(C(=O)Nc4ccccc4)c4ccc(C)cc4n3C)n(C)c2c1 [Compound 77, bis [N-phenyl 1,6-dimethylindolyl-3-carboxamide-(2)]disulfide]	–	9	1	–
Cc1cccc2c(C(=O)Nc3ccccc3)c(SSc3c(C(=O)Nc4ccccc4)c4cccc(C)c4n3C)n(C)c12 [Compound 78, bis [N-phenyl 1,7-dimethyl indolyl-3-carboxamide-(2)]disulfide]	–	27	7	–
COc1ccc2c(c1)c(C(=O)Nc1ccccc1)c(SSc1c(C(=O)Nc3ccccc3)c3cc(OC)ccc3n1C)n2C [Compound 80, bis[N-phenyl 5-methoxy-1-methylindolyl-3-carboxamide-(2)]disulfide]	–	0	16	–
Cn1c(SSc2c(C(=O)Nc3ccccc3)c3cc(C(F)(F)F)ccc3n2C)c(C(=O)Nc2ccccc2)c2cc(C(F)(F)F)ccc21 [Compound 84, 2,2-dithiobis [N-phenyl-1-methyl-5-(trifluoro-methyl)indolyl-3-carboxamide]]	–	35	22	–
Cn1c(SSc2c(C(=O)Nc3ccccc3)c3ccc(Cl)cc3n2C)c(C(=O)Nc2ccccc2)c2ccc(Cl)cc21 [Compound 85, bis[N-phenyl 6-chloro-1-methylindolyl-3-carboxamide-(2)]disulfide]	–	8	7	–
Cn1c(SSc2c(C(=O)Nc3ccccc3)c3cc([N+](=O)[O-])ccc3n2C)c(C(=O)Nc2ccccc2)c2cc([N+](=O)[O-])ccc21 [Compound 86, 2,2'-dithiobis [N-phenyl-1-methyl-5-nitroindolyl-3-carboxamide]]	–	–	–	IC50 [1]: 4.9 µM; inhibition at 100 µM [3]: 5%
Cn1c(SSc2c(C(=O)Nc3ccccc3)c3cc(F)ccc3n2C)c(C(=O)Nc2ccccc2)c2cc(F)ccc21 [Compound 87, 2,2'-dithiobis [N-phenyl-5-fluoro-1-methylindolyl-3-carboxamide]]	–	34	44	–
Cn1c(SSc2c(C(=O)Nc3ccccc3)c3cc(C#N)ccc3n2C)c(C(=O)Nc2ccccc2)c2cc(C#N)ccc21 [Compound 88, 2,2'-dithiobis[N-phenyl-5-cyano-1-methylindolyl-3-carboxamide]]	54	–	51	–
Cn1c(SSc2c(C(=O)Nc3ccccc3)c3cc(Br)ccc3n2C)c(C(=O)Nc2ccccc2)c2cc(Br)ccc21 [Compound 89, 2,2'-dithiobis[N-phenyl-5-bromo-1-methylindolyl-3-carboxamide]]	11.4	–	3	–
CC(=O)Oc1cccc2c1c(C(=O)Nc1ccccc1)c(SSc1c(C(=O)Nc3ccccc3)c3c(OC(C)=O)cccc3n1C)n2C [Compound 90, 2,2'-dithiobis [N-phenyl 4-acetoxy-1-methylindolyl-3-carboxamide]]	26	–	–	IC50 [3]: 36.5 µM
Cn1c(SSc2c(C(=O)Nc3ccc(C(=O)O)cc3)c3ccccc3n2C)c(C(=O)Nc2ccc(C(=O)O)cc2)c2ccccc21 [Compound 105, 2,2'-dithiobis [N-(4'-carboxy)phenyl-1-methylindolyl-3-carboxamide]]	16.9	–	33	–
Cn1c(SSc2c(C(=O)Nc3ccccc3C(=O)O)c3ccccc3n2C)c(C(=O)Nc2ccccc2C(=O)O)c2ccccc21 [Compound 109, 2,2'-dithiobis[N-(2'-carboxy)phenyl-1-methylindolyl-3-carboxamide]]	47	–	8	–
Cn1c(SSc2c(C(=O)NCC(=O)O)c3ccccc3n2C)c(C(=O)NCC(=O)O)c2ccccc21 [Compound 112, 2,2'-dithiobis[N-carboxymethyl1-methylindolyl-3-carboxamide]]	10	–	69	–
CN(C(=O)c1c(SSc2c(C(=O)N(C)c3ccccc3)c3ccccc3n2C)n(C)c2ccccc12)c1ccccc1 [Compound 113, 2,2 '-dithiobis [N-methyl-N-phenyl-1-methylindolyl-3-carboxamide]]	–	5	29	–
Cn1c(SSc2c(C(=O)NCC(O)CO)c3ccccc3n2C)c(C(=O)NCC(O)CO)c2ccccc21 (stereo not shown) [Compound 114, 2,2'-dithiobis [N-(2,3-dihydroxypropyl)-1-methylindolyl-3-carboxamide]]	42.9	–	–	IC50 [3]: 7 µM
Cn1c(SSc2c(C(=O)Nc3ccncc3)c3ccccc3n2C)c(C(=O)Nc2ccncc2)c2ccccc21 [Compound 116, 2,2'-dithiobis[N-(4-pyridyl)-1-methylindolyl-3-carboxamide]]	–	4	–	IC50 [3]: 7.9 µM
Cn1c(SSc2c(C(=O)Nc3cccnc3)c3ccccc3n2C)c(C(=O)Nc2cccnc2)c2ccccc21 [Compound 117, 2,2'-dithiobis [N-(3-pyridyl) 1-methylindolyl-3-carboxamide]]	–	25	–	IC50 [3]: 4.2 µM
Cn1c(SSc2c(C(N)=O)c3ccccc3n2C)c(C(N)=O)c2ccccc21 [Compound 118, 2,2'-dithiobis[1-methylindolyl-3-carboxamide]]	4.7	–	78	–
CN(C)C(=O)c1c(SSc2c(C(=O)N(C)C)c3ccccc3n2C)n(C)c2ccccc12 [Compound 119, 2,2'-dithiobis[N,N-dimethyl-1-methylindolyl-3-carboxamide]]	21.2	–	73	–
CCN(CC)CCNC(=O)c1c([Se][Se]c2[nH]c3ccccc3c2C(=O)NCCN(CC)CC)[nH]c2ccccc12 [Compound 134, 2,2'-diselenobis [N-[2-(diethylamino)ethyl]-1H-indole-3-carboxamide]]	–	–	–	IC50 ([2]; Swiss-3T3, 72 h, read-out: IC50 growth inhibition): 8 µM
